From patent US20090012085A1, “DOSAGE FORMS AND METHODS OF TREATMENT USING A TYROSINE KINASE INHIBITOR” (priority 2005, published 2009)

Tested on: solid tumor malignancies
Assay: Efficacy study in humans with solid tumors (RECIST, CT scan or MRI)
Format: in vivo, human
Parameters: key to Response time and response: PR means partial response; CR means complete response
Description: Complete Response (CR), as used herein, unless otherwise indicated, refers to disappearance of all measurable and nonmeasurable lesions and no appearance of new lesions in a patient under the treatment of compound of formula 1, its pharmaceutically acceptable salt or solvate thereof, or a mixture thereof.
Partial Response (PR), as used herein, unless other wise indicated, refers to at least a 30% decrease in the sum of the LDs of target lesions (taking as reference the baseline sum), without progression of nontarget lesions and no appearance of new lesions in a patient under treatment of compound of formula 1, its pharmaceutically acceptable salt or solvate thereof, or a mixture thereof.
50 patients were treated under a dose-escalating multicenter study of patients with solid tumor malignancies not amenable to conventional therapies. The types of tumor malignancies that the patients had included colorectal carcinoma, renal cell carcinoma, esophageal carcinoma, thymus carcinoma, mastocytosis, lung cancer and multiple endocrine neoplasia type II and other malignances. Patients were treated in cohorts of 6 with escalating QD (once per day) doses of a maleate salt of a compound of formula 1. Each study cycle was a five week cycle consisting of 4 weeks of treatment followed by 1 week of rest (4/1 schedule) or a five week cycle of continuous dosing without any rest period.
Of these 50 patients, all patients were evaluated for efficacy determinations. Tumor size was measured at the end of each cycle of treatment. […] The partial response of four of these seven patients was confirmed by a repeat assessment four weeks later. The partial response of the other three patients has not been confirmed. The tumor shrinkage was determined by either CT scan or MRI as per RECIST criteria.

Cc1[nH]c(/C=C2\C(=O)Nc3ccc(F)cc32)c(C)c1C(=O)NC[C@H](O)CN1CCOCC1 [compound 1, 5-[(Z)-(5-fluoro-2-oxo-1,2-dihydro-3H-indol-3-ylidene)methyl]-N-[(2S)-2-hydroxy-3-morpholin-4-ylpropyl]-2,4-dimethyl-1H-pyrrole-3-carboxamide]
Response time and response (Patient 1, Renal cell carcinoma, 50 mg 4/1 QD, after 2nd cycle): PR
Response time and response (Patient 1, Renal cell carcinoma, 50 mg 4/1 QD, at cycle 5): CR
Response time and response (Patient 2, Biliary cell Carcinoma, 100 mg 4/1 QD, at cycle 5, confirmed): PR at cycle 5, confirmed.
Response time and response (Patient 3, Thyroid carcinoma, 150 mg QD 4/1, after 1st cycle, confirmed): PR after 1st cycle,
Response time and response (Patient 4, Colon adenocarcinoma, 150 mg QD 4/1, after 1st cycle, not confirmed): PR after 1st cycle, not
Response time and response (Patient 5, Renal cell carcinoma, 250 mg QD 4/1, after 1st cycle, confirmed): PR after 1st cycle,
Response time and response (Patient 6, Alveolar soft tissue carcinoma, cycle 1 250 mg QD 4/1, cycle 2 and beyond 200 mg QD 4/1, not confirmed): PR, not confirmed
Response time and response (Patient 7, Renal cell carcinoma, 150 mg continuous, after 1st cycle, not confirmed): PR after 1st cycle, not
Response time and response (Patient 8, Thymoma, cycle 1 150 mg continuous, cycle 2 and beyond 100 mg continuous, not confirmed): PR, not confirmed.
patients showing complete response (among the 50 patients): 1 patient
patients showing partial response (among the 50 patients): 7 patients
partial responses confirmed by a repeat assessment four weeks later (of the seven patients with partial response): four
